In patent publication US6329523A, “Compounds having a plurality of nitrogenous substitutents” (ISIS Pharmaceuticals, Inc., priority 1999, dated 2001):
Values after ≈ are worked out from the molar mass of the structure shown.

Tests used:
Format in all cases: cell-based
Streptococcus pyogenes = assay: MIC / bacterial growth assay, Streptococcus pyogenes; conditions: for inhibition at 100 µM: read-out: inhibition in the S. pyogenes procedure
Protocol: S. pyogenes [American Type Culture Collection (ATCC) #14289] is used in this bacterial growth assay. To initiate the exponential phase of bacterial growth prior to the assay, a sample of bacteria is grown for 6 hours in Todd Hewitt Broth (Difco 0492-17-6) at 37° C. then re-inoculated into fresh media and grown overnight at 37° C. The bacterial cells are collected by centrifugation for 10 minutes at 3200 rpm, diluted and absorbance read at 595 nm. Bacteria diluted in 233 Todd-Hewitt Broth ([…]) are added to the compound mixtures (75 μL) for a total volume of 150 μL. The assays are performed in 96-well microplates with approximately 1×10^4 colony forming units (CFU) per well. The plates are incubated at 37° C. and growth monitored over a 24 hour period by measuring the optical density at 595 nm using a BioRad model 3550 UV microplate reader. The percentage of growth relative to a well containing no compound is determined. Ampicillin and tetracycline antibiotic controls are concurrently tested in each screening assay.
(§1) Compounds are assayed in duplicate at a single dose. Compounds which show inhibitory activity are re-tested in duplicate at multiple doses to determine minimum inhibitory concentration (MIC).

E. coli imp- = assay: MIC / bacterial growth assay, E. coli imp-; conditions: Escherichia coli
Protocol: The strain E. coli imp- obtained from Spencer Benson (Sampson, B. A., Misra, R. & Benson, S. A., Genetics, 1989, 122, 491-501, Identification and characterization of a new gene of Escherichia coli K-12 involved in outer membrane permeability) is used in this bacterial growth assay. To initiate the exponential phase of bacterial growth prior to the assay, a sample of bacteria is grown for 6 hours in Mueller Hinton II Broth (BBL 12322) at 37° C. then re-inoculated into fresh media and grown overnight at 37° C. The bacterial cells are collected by centrifugation for 10 minutes at 3200 rpm, diluted and absorbance read at 595 nm. Bacteria diluted in 2×Mueller Hinton II Broth (75 μL) are added to the compound mixtures (75μL) for a total volume of 150 μL. The assays are performed in 96-well microplates with approximately 1×10^4 colony forming units (CFU) per well. The plates are incubated at 37° C. and growth monitored over a 24 hour period by measuring the optical density at 595 nm using a BioRad model 3550 UV microplate reader. The percentage of growth relative to a well containing no compound is determined. Ampicillin and tetracycline antibiotic controls are concurrently tested in each screening assay.
as §1

C. albicans = assay: antifungal MIC assay, C. albicans; conditions: Candida albicans, 24 h; MIC ASSAYS table; unit inferred
Protocol: Yeast diluted in 2×YM Broth (75 μL) are added to the compound mixtures (75 μL) for a total volume of 150 μL. The assays are performed in 96-well microplates with approximately 1×10^4 cells per well. The plates are incubated at 25° C. and growth monitored at 48 hours by visual inspection of yeast growth. Amphotericin B anti-fungal control is concurrently tested in each screening assay.
Compounds are assayed in duplicate at multiple doses to determine minimum inhibitory concentration (MIC).

Row | SMILES | MIC (Streptococcus pyogenes; 24 h, MIC ASSAYS table, first round or parent libraries, unit inferred, read-out: MIC S. pyrogenes) [µM] | MIC (E. coli imp-; 24 h, read-out: MIC E. coli) [µM] | MIC (C. albicans) [µM] | inhibition at 100 µM (Streptococcus pyogenes) [%] | inhibition at 100 µM (E. coli imp-; read-out: inhibition in the E. coli procedure) [%]
1 | OCCCN(CCN(Cc1ccccc1)Cc1cccc(CN(Cc2ccccc2)Cc2ccccc2)n1)Cc1ccccc1 [Compound 9, 2-(N,N-dibenzylaminomethylene)-6-{[N1-[benzyl(methyl-1-yl)]-N2-(benzyl)-1-propanol-3-yl]-1,2-diaminoethane}pyridine] | 5 to 25 (≈ 2.99 to 15 µg/mL) | 5 to 25 (≈ 2.99 to 15 µg/mL) | 1 to 5 (≈ 0.599 to 2.99 µg/mL) | – | –
2 | NC(=O)CN(Cc1cccc(C(F)(F)F)c1)Cc1cccc(CN(CCNCCCO)Cc2cccc(C(F)(F)F)c2)n1 [Example 137] | – | – | – | 95 | 87
3 | N=C(N)NCc1cccc(CN(CCNCCCO)Cc2cccc(C(F)(F)F)c2)n1 [Example 142] | – | – | – | 95 | –
